Results published in patent publication US20220362184A1, “GUT-PROTECTIVE COMPOSITIONS COMPRISING BOSWELLIC ACID” (INVENTIA HEALTHCARE LIMITED, priority 2019, published 2022).

Legend:
[1] = test system: Helicobacter pylori strains; assay: Micro-broth dilution antimicrobial activity (MIC, CLSI); assay type: cell-based; details: growth inhibited >90% compared to growth control
Description: Micro-broth dilution method was used to determine the antimicrobial activity of boswellic acid composition against Helicobacter pylori strains. The anti-bacterial minimum inhibitory concentration (MIC) study was performed as per the Clinical and Laboratory Standards Institute (CLSI) guidelines.
The test compound (composition comprising boswellic acid) was dissolved using Methanol to a concentration of 12.8 mg/mL (stock). Amoxicillin was dissolved in sterile Phosphate buffer to a concentration of 2 mg/mL.

[2] = test system: Dextran Sodium Sulphate (2.5% w/v) induced colitis in BALB/c mice; assay: Dextran Sodium Sulphate induced colitis, gut-protective effect; assay type: in vivo
Description: The compositions comprising boswellic acids are also evaluated for their gut-protective effect using Dextran Sodium Sulphate (2.5% w/v) induced colitis in BALB/c mice. Body weights of mice were recorded during study period, macroscopic examination was carried out for all terminal sacrificed, moribund and found dead animals. Colon and rectum were collected, and histopathology was performed. The composition comprising boswellic acid was also evaluated for gut-protective effect through antimicrobial activity against Helicobacter pylori strains using Micro-broth dilution method. The anti-bacterial minimum inhibitory concentration (MIC) was checked for the composition against Amoxycillin.
The gut-protective effect of composition comprising boswellic acids was evaluated using Dextran Sodium Sulphate (2.5% w/v) induced colitis in BALB/c mice. Dextran Sodium Sulphate (DSS) (36000 to 50000 Daltons molecular weight) was added in autoclaved drinking water and administered to the animals over 10 days for inducing disease condition. Group 2 served as disease control. Groups 3, 4 and 5 were treated with Test Item 1 (G3), Test Item 2 (G4) and Reference (Sulfasalazine—G5), respectively. Concurrent vehicle control group (G1) was also maintained.
Onset of colitis symptoms was monitored by measuring percent body weight, stool consistency (SC) and fecal occult blood (FOB). During the study period (10 days), Disease Activity Index (DAI) was calculated from scores of percent body weight, SC and FOB and were reported. Treatment was continued along with the DSS administration in drinking water up to 10 days by oral administration of Test and Reference Item as follows: • Group 1—Normal control (no DSS & no treatment) • Group 2—Disease control (only DSS, no treatment) • Group 3—DSS+Boswellic acid composition of Example 2: 41 mg/kg • Group 4—DSS+Boswellic acid composition of Example 4: 41 mg/kg • Group 5—DSS+Sulfasalazine: 30 mg/kg
Body weights were recorded daily throughout the study period. Macroscopic examination was carried out for all the terminal sacrificed, moribund and found dead animals. Colon and rectum were collected, and histopathology was performed.

Structure (SMILES)	MIC [1] [µg/mL]	percentage of mortality during the study period ([2]; 10 days oral with DSS, compositions 41 mg/kg, sulfasalazine 30 mg/kg) [%]	% body weight change ([2]; Day 10, disease control −20.34%, vehicle control −0.44%) [%]	Mean Disease Activity Index (DAI) ([2]; females, Day 10, disease control 3.9)	Mean Disease Activity Index (DAI) ([2]; males, Day 10, disease control 3.1)
CC1(C)S[C@@H]2[C@H](NC(=O)[C@H](N)c3ccc(O)cc3)C(=O)N2[C@H]1C(=O)O [Amoxicillin]	< 0.25				
O=C(O)c1cc(/N=N/c2ccc(S(=O)(=O)Nc3ccccn3)cc2)ccc1O [Sulfasalazine]		20	−17.77	3.2	3.6
